Measured values as given in US12077503B2, “Substituted cyclic amides and their use as herbicides” (FMC CORPORATION, priority 2015, dated 2024).

How the values were obtained:
Assay type in all cases: in vivo
Kochia (Kochia scoparia) [1] = experiment: Test A preemergence; conditions: Bassia scoparia, pre-emergence, 240 h, 0 to 100 scale where 0 is no effect and 100 is complete control, read-out: Kochia plant response rating
Procedure, shortened: (§1)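 Preemergence directed soil spray on seeded pots, or postemergence application to plants 2–10 cm, one- to two-leaf. Solvent mixture non-phytotoxic, with surfactant. Scored ~10 d later, visually, 0–100 vs untreated.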

[2] = system: barnyardgrass (Echinochloa crus-galli); experiment: Test A preemergence; conditions: Echinochloa crus-galli, pre-emergence, 240 h, 0 to 100 scale where 0 is no effect and 100 is complete control, read-out: Barnyardgrass plant response rating
Procedure, shortened: as §1

[3] = system: giant foxtail (Setaria faberii); experiment: Test A preemergence; conditions: Setaria faberi, pre-emergence, 240 h, 0 to 100 scale where 0 is no effect and 100 is complete control, read-out: Foxtail, Giant plant response rating
Procedure, shortened: as §1

[4] = system: pigweed (Amaranthus retroflexus); experiment: Test A preemergence; conditions: Amaranthus retroflexus, pre-emergence, 240 h, 0 to 100 scale where 0 is no effect and 100 is complete control, read-out: Pigweed plant response rating
[5] = system: ragweed (common ragweed, Ambrosia elatior); experiment: Test A preemergence; conditions: Ambrosia artemisiifolia, pre-emergence, 240 h, 0 to 100 scale where 0 is no effect and 100 is complete control, read-out: Ragweed plant response rating
Procedure, shortened: as §1

[6] = system: ryegrass, Italian (Italian ryegrass, Lolium multiflorum); experiment: Test A preemergence; conditions: Lolium multiflorum, pre-emergence, 240 h, 0 to 100 scale where 0 is no effect and 100 is complete control, read-out: Ryegrass, Italian plant response rating
Procedure, shortened: as §1

[7] = system: Galium (catchweed bedstraw, Galium aparine); experiment: Test A postemergence; conditions: Galium, post-emergence, 240 h
Procedure, shortened: as §1

Kochia (Kochia scoparia) [8] = experiment: Test A postemergence; conditions: Bassia scoparia, post-emergence, 240 h
Procedure, shortened: as §1

[9] = system: barnyardgrass (Echinochloa crus-galli); experiment: Test A postemergence; conditions: Echinochloa crus-galli, post-emergence, 240 h
Procedure, shortened: as §1

[10] = system: blackgrass (Alopecurus myosuroides); experiment: Test A postemergence; conditions: Alopecurus myosuroides, post-emergence, 240 h
Procedure, shortened: as §1

corn (Zea mays) = experiment: Test A postemergence; conditions: Zea mays, post-emergence, 240 h
Procedure, shortened: as §1

[11] = system: giant foxtail (Setaria faberii); experiment: Test A postemergence; conditions: Setaria faberi, post-emergence, 240 h
Procedure, shortened: as §1

[12] = system: pigweed (Amaranthus retroflexus); experiment: Test A postemergence; conditions: Amaranthus retroflexus, post-emergence, 240 h
Procedure, shortened: as §1

[13] = system: ragweed (common ragweed, Ambrosia elatior); experiment: Test A postemergence; conditions: Ambrosia artemisiifolia, post-emergence, 240 h
Procedure, shortened: as §1

[14] = system: ryegrass, Italian (Italian ryegrass, Lolium multiflorum); experiment: Test A postemergence; conditions: Lolium multiflorum, post-emergence, 240 h
Procedure, shortened: as §1

[15] = system: wheat (Triticum aestivum); experiment: Test A postemergence; conditions: Triticum aestivum, post-emergence, 240 h
Procedure, shortened: as §1

[16] = system: barnyardgrass (Echinochloa crus-galli); experiment: Test B flooded paddy test; conditions: Echinochloa crus-galli, 250 g ai/ha, Flood; 0 to 100 scale where 0 is no effect and 100 is complete control; read-out: Barnyardgrass plant response rating
Procedure, shortened: (§2)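 Greenhouse paddy pots with 2-leaf stage plants received compound by direct addition to floodwater 3 cm deep, kept at that level. Scored visually at 13–15 d versus controls (0 no effect; 100 complete control).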

[17] = system: ducksalad (Heteranthera limosa); experiment: Test B flooded paddy test; conditions: Heteranthera limosa, 250 g ai/ha, Flood; 0 to 100 scale where 0 is no effect and 100 is complete control; read-out: Ducksalad plant response rating
Procedure, shortened: as §2

rice (Oryra sativa) = experiment: Test B flooded paddy test; conditions: Oryza sativa, 250 g ai/ha, Flood; 0 to 100 scale where 0 is no effect and 100 is complete control; read-out: Rice plant response rating
Procedure, shortened: as §2

[18] = system: sedge, umbrella (small-flower umbrella sedge, Cyperus difformis); experiment: Test B flooded paddy test; conditions: Cyperus difformis, 250 g ai/ha, Flood; 0 to 100 scale where 0 is no effect and 100 is complete control; read-out: Sedge, Umbrella plant response rating
Procedure, shortened: as §2

[19] = 125 g ai/ha, preemergence, approx. 10 d

## CSc1ccccc1NC(=O)[C@H]1C(=O)N(C)C[C@@H]1c1cc(C(F)F)cs1 [Compound 1088]
Kochia (Kochia scoparia) [1]; 31 g ai/ha, Preemergence
  pest or weed control at 31 g/ha: 30%
Kochia (Kochia scoparia) [1]; [19]
  pest or weed control at 125 g/ha: 20%
[2]; 31 g ai/ha, Preemergence
  pest or weed control at 31 g/ha: 0%
[2]; [19]
  pest or weed control at 125 g/ha: 30%
[3]; 31 g ai/ha, Preemergence
  pest or weed control at 31 g/ha: 0%
[3]; [19]
  pest or weed control at 125 g/ha: 100%
[4]; 31 g ai/ha, Preemergence
  pest or weed control at 31 g/ha: 0%
[4]; [19]
  pest or weed control at 125 g/ha: 0%
[5]; 31 g ai/ha, Preemergence
  pest or weed control at 31 g/ha: 0%
[5]; [19]
  pest or weed control at 125 g/ha: 0%
[6]; 31 g ai/ha, Preemergence
  pest or weed control at 31 g/ha: 0%
[6]; [19]
  pest or weed control at 125 g/ha: 0%
[7]; 125 g ai/ha, postemergence, visual injury on 0 to 100 scale (0 no effect, 100 complete control), approx. 10 d, read-out: Galium plant response rating
  pest or weed control at 125 g/ha: 30%
[7]; Postemergence, 31 g ai/ha, visual injury after approx. 10 d, 0 to 100 scale, 0 no effect, 100 complete control, read-out: Plant response rating, Galium
  pest or weed control at 31 g/ha: 20%
Kochia (Kochia scoparia) [8]; 125 g ai/ha, postemergence, visual injury on 0 to 100 scale (0 no effect, 100 complete control), approx. 10 d, read-out: Kochia plant response rating
  pest or weed control at 125 g/ha: 0%
Kochia (Kochia scoparia) [8]; Postemergence, 31 g ai/ha, visual injury after approx. 10 d, 0 to 100 scale, 0 no effect, 100 complete control, read-out: Plant response rating, Kochia
  pest or weed control at 31 g/ha: 0%
[9]; 125 g ai/ha, postemergence, visual injury on 0 to 100 scale (0 no effect, 100 complete control), approx. 10 d, read-out: Barnyardgrass plant response rating
  pest or weed control at 125 g/ha: 30%
[9]; Postemergence, 31 g ai/ha, visual injury after approx. 10 d, 0 to 100 scale, 0 no effect, 100 complete control, read-out: Plant response rating, Barnyardgrass
  pest or weed control at 31 g/ha: 0%
[10]; 125 g ai/ha, postemergence, visual injury on 0 to 100 scale (0 no effect, 100 complete control), approx. 10 d, read-out: Blackgrass plant response rating
  pest or weed control at 125 g/ha: 0%
[10]; Postemergence, 31 g ai/ha, visual injury after approx. 10 d, 0 to 100 scale, 0 no effect, 100 complete control, read-out: Plant response rating, Blackgrass
  pest or weed control at 31 g/ha: 0%
Corn (Zea mays); 125 g ai/ha, postemergence, visual injury on 0 to 100 scale (0 no effect, 100 complete control), approx. 10 d, read-out: Corn plant response rating
  plant injury at 125 g/ha: 0%
Corn (Zea mays); Postemergence, 31 g ai/ha, visual injury after approx. 10 d, 0 to 100 scale, 0 no effect, 100 complete control
  Corn plant response rating (crop injury, 0 = no effect, 100 = complete kill) at 31 g/ha: 0%
[11]; 125 g ai/ha, postemergence, visual injury on 0 to 100 scale (0 no effect, 100 complete control), approx. 10 d, read-out: Foxtail, Giant plant response rating
  pest or weed control at 125 g/ha: 20%
[11]; Postemergence, 31 g ai/ha, visual injury after approx. 10 d, 0 to 100 scale, 0 no effect, 100 complete control, read-out: Plant response rating, Foxtail, Giant
  pest or weed control at 31 g/ha: 0%
[12]; 125 g ai/ha, postemergence, visual injury on 0 to 100 scale (0 no effect, 100 complete control), approx. 10 d, read-out: Pigweed plant response rating
  pest or weed control at 125 g/ha: 0%
[12]; Postemergence, 31 g ai/ha, visual injury after approx. 10 d, 0 to 100 scale, 0 no effect, 100 complete control, read-out: Plant response rating, Pigweed
  pest or weed control at 31 g/ha: 0%
[13]; 125 g ai/ha, postemergence, visual injury on 0 to 100 scale (0 no effect, 100 complete control), approx. 10 d, read-out: Ragweed plant response rating
  pest or weed control at 125 g/ha: 0%
[13]; Postemergence, 31 g ai/ha, visual injury after approx. 10 d, 0 to 100 scale, 0 no effect, 100 complete control, read-out: Plant response rating, Ragweed
  pest or weed control at 31 g/ha: 0%
[14]; 125 g ai/ha, postemergence, visual injury on 0 to 100 scale (0 no effect, 100 complete control), approx. 10 d, read-out: Ryegrass, Italian plant response rating
  pest or weed control at 125 g/ha: 0%
[14]; Postemergence, 31 g ai/ha, visual injury after approx. 10 d, 0 to 100 scale, 0 no effect, 100 complete control, read-out: Plant response rating, Ryegrass, Italian
  pest or weed control at 31 g/ha: 0%
[15]; 125 g ai/ha, postemergence, visual injury on 0 to 100 scale (0 no effect, 100 complete control), approx. 10 d, read-out: Wheat plant response rating
  plant injury at 125 g/ha: 0%
[15]; Postemergence, 31 g ai/ha, visual injury after approx. 10 d, 0 to 100 scale, 0 no effect, 100 complete control, read-out: Plant response rating, Wheat
  plant injury at 31 g/ha: 0%
[16]
  pest or weed control at 250 g/ha: 30%
[17]
  pest or weed control at 250 g/ha: 75%
Rice (Oryra sativa)
  pest or weed control at 250 g/ha: 0%
[18]
  pest or weed control at 250 g/ha: 0%
